Data: patent US9546152B2 (MERCK SHARP & DOHME CORP., priority 2012, dated 2017)

Legend:
human orexin-2 receptor [1] = molecular target: T1, human orexin-2 receptor (Homo sapiens (Human), UniProt O43614); assay: radioligand binding assay, orexin-2 receptor; settings: membranes prepared from CHO cells expressing the OX2 receptor; read-out: hOX2R BIND hKi
Procedure: (§1) In a typical experiment the OX1 and OX2 receptor antagonistic activity of the compounds of the present invention was determined in accordance with the following experimental method. For intracellular calcium measurements, Chinese hamster ovary (CHO) cells expressing the rat orexin-1 receptor or the human orexin-2 receptor, are grown in Iscove's modified DMEM containing 2 mM L-glutamine, […], 1% hypoxanthine-thymidine supplement, 100 U/ml penicillin, 100 μg/ml streptomycin and 10% heat-inactivated fetal calf serum (FCS). The cells are seeded at 20,000 cells/well into Becton-Dickinson black 384-well clear bottom sterile plates coated with poly-D-lysine. All reagents were from GIBCO-Invitrogen Corp. The seeded plates are incubated overnight at 37° C. and 5% CO2. Ala-6,12 human orexin-A as the agonist is prepared as a 1 mM stock solution in 1% bovine serum albumin (BSA) and diluted in assay buffer (HBSS containing 20 mM HEPES, 0.1% BSA and 2.5 mM probenecid, pH7.4) for use in the assay at a final concentration of 70 pM. Test compounds are prepared as 10 mM stock solution in DMSO, then diluted in 384-well plates, first in DMSO, then assay buffer. On the day of the assay, cells are washed 3 times with 100 μl assay buffer and then incubated for 60 min (37° C., 5% CO2) in 60 μl assay buffer containing 1 μM Fluo-4AM ester, 0.02% pluronic acid, and 1% BSA. The dye loading solution is then aspirated and cells are washed 3 times with 100 μl assay buffer. 30 μl of that same buffer is left in each well. Within the Fluorescent Imaging Plate Reader (FLIPR, Molecular Devices), test compounds are added to the plate in a volume of 25 μl, incubated for 5 min and finally 25 μl of agonist is added. Fluorescence is measured for each well at 1 second intervals for 5 minutes and the height of each fluorescence peak is compared to the height of the fluorescence peak induced by 70 pM Ala-6,12 orexin-A with buffer in place of antagonist. […] Alternatively, compound potency can be assessed by a radioligand binding assay (described in Bergman et. al. Bioorg. Med. Chem. Lett. 2008, 18, 1425-1430) in which the inhibition constant (Ki) is determined in membranes prepared from CHO cells expressing either the OX1 or OX2 receptor. The intrinsic orexin receptor antagonist activity of a compound which may be used in the present invention may be determined by these assays.

human orexin-2 receptor [2] = molecular target: T1, human orexin-2 receptor; assay: FLIPR Ca2+ Flux Assay, orexin-2 receptor; format: cell-based; settings: CHO cells expressing the human orexin-2 receptor; agonist 70 pM Ala-6,12 human orexin-A; read-out: hOX2R FLIPR IC50
Procedure: as §1

rat orexin-1 receptor = rat orexin-1 receptor (Rattus norvegicus (Rat), UniProt P56718); assay: FLIPR Ca2+ Flux Assay, orexin-1 receptor; format: cell-based; settings: CHO cells expressing the rat orexin-1 receptor; agonist 70 pM Ala-6,12 human orexin-A; read-out: hOX1R FLIPR IC50
Procedure: as §1

rat orexin-1 receptor, sequence (P56718 whole entry): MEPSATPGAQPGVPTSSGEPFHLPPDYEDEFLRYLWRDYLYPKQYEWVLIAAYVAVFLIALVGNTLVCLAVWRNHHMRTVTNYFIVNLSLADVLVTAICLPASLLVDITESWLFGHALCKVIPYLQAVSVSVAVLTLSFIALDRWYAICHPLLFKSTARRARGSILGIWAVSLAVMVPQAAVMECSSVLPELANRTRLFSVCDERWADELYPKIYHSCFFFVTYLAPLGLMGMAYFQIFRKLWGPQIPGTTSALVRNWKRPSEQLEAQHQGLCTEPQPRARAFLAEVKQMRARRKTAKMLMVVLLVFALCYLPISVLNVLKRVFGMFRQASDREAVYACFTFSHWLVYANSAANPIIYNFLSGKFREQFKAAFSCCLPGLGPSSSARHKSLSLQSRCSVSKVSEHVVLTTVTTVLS
T1 sequence (O43614 whole entry): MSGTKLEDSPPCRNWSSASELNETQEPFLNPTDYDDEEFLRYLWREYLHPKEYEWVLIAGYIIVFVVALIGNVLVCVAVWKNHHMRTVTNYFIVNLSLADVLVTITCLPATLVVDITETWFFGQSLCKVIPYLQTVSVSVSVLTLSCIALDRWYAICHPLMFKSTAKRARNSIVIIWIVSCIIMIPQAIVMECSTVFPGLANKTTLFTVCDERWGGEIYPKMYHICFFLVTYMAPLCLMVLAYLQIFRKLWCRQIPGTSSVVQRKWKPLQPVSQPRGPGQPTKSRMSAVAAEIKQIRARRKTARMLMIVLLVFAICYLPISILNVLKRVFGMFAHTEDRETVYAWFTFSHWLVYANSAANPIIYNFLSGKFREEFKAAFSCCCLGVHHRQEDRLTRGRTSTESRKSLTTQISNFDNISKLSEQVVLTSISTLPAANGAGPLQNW

| Compound | Ki (human orexin-2 receptor [1]) | IC50 (human orexin-2 receptor [2]) | IC50 (rat orexin-1 receptor) |
| --- | --- | --- | --- |
| Cc1c(C#N)ccnc1O[C@@H]1CC[C@@H](C)N(C(=O)c2ccccc2-n2nccn2)C1 [Example 1, 3-Methyl-2-{[(3R,6R)-6-methyl-1-{[2-(2H-1,2,3-triazol-2-yl)phenyl]carbonyl}piperidin-3-yl]oxy}pyridine-4-carbonitrile] | 0.4 nM | 8 nM | 996 nM |
| COc1ccc(C(=O)N2C[C@H](Oc3nccc(C#N)c3C)CC[C@H]2C)c(-n2nccn2)n1 [Example 2, 2-{[(3R,6R)-1-{[6-Methoxy-2-(2H-1,2,3-triazol-2-yl)pyridin-3-yl]carbonyl}-6-methylpiperidin-3-yl]oxy}-3-methylpyridine-4-carbonitrile] | 3 nM | 21 nM | 5930 nM |
| Cc1c(C#N)ccnc1O[C@@H]1CC[C@@H](C)N(C(=O)c2cc(Cl)ccc2-n2nccn2)C1 [Example 3, 2-{[(3R,6R)-1-{[5-chloro-2-(2H-1,2,3-triazol-2-yl)phenyl]carbonyl}-6-methylpiperidin-3-yl]oxy}-3-methylpyridine-4-carbonitrile] | 11.7 nM | 128 nM | 4730 nM |
| Cc1ccc(-n2nccn2)c(C(=O)N2C[C@H](Oc3nccc(C#N)c3C)CC[C@H]2C)c1 [Example 6, 3-methyl-2-{[(3R,6R)-6-methyl-1-{[5-methyl-2-(2H-1,2,3-triazol-2-yl)phenyl]carbonyl}piperidin-3-yl]oxy}pyridine-4-carbonitrile] | 0.6 nM | 7 nM | 292 nM |
| Cc1ccc(C(=O)N2C[C@H](Oc3nccc(C#N)c3C)CC[C@H]2C)c(-n2nccn2)c1 [Example 8, 3-methyl-2-{[(3R,6R)-6-methyl-1-{[4-methyl-2-(2H-1,2,3-triazol-2-yl)phenyl]carbonyl}piperidin-3-yl]oxy}pyridine-4-carbonitrile] | 0.6 nM | 11 nM | 861 nM |
| Cc1c(C#N)ccnc1O[C@@H]1CC[C@@H](C)N(C(=O)c2ccc(F)cc2-n2nccn2)C1 [Example 9, 2-{[(3R,6R)-1-{[4-fluoro-2-(2H-1,2,3-triazol-2-yl)phenyl]carbonyl}-6-methylpiperidin-3-yl]oxy}-3-methylpyridine-4-carbonitrile] | 0.5 nM | 12 nM | 1080 nM |
| Cc1c(C#N)ccnc1O[C@@H]1CC[C@@H](C)N(C(=O)c2cnccc2-n2nccn2)C1 [Example 10, 3-methyl-2-{[(3R,6R)-6-methyl-1-{[4-(2H-1,2,3-triazol-2-yl)pyridin-3-yl]carbonyl}piperidin-3-yl]oxy}pyridine-4-carbonitrile] | 8.1 nM | 55 nM | 7070 nM |
| Cc1c(C#N)ccnc1O[C@@H]1CC[C@@H](C)N(C(=O)c2c(F)cccc2-n2nccn2)C1 [Example 11, 2-{[(3R,6R)-1-{[2-fluoro-6-(2H-1,2,3-triazol-2-yl)phenyl]carbonyl}-6-methylpiperidin-3-yl]oxy}-3-methylpyridine-4-carbonitrile] | 0.3 nM | 10 nM | 611 nM |
| Cc1cccc(C(=O)N2C[C@H](Oc3nccc(C#N)c3C)CC[C@H]2C)c1-n1nccn1 [Example 13, 3-methyl-2-{[(3R,6R)-6-methyl-1-{[3-methyl-2-(2H-1,2,3-triazol-2-yl)phenyl]carbonyl}piperidin-3-yl]oxy}pyridine-4-carbonitrile] | 0.2 nM | 9 nM | 215 nM |
| COc1cccc(-n2nccn2)c1C(=O)N1C[C@H](Oc2nccc(C#N)c2C)CC[C@H]1C [Example 14, 2-{[(3R,6R)-1-{[2-methoxy-6-(2H-1,2,3-triazol-2-yl)phenyl]carbonyl}-6-methylpiperidin-3-yl]oxy}-3-methylpyridine-4-carbonitrile] | 0.2 nM | 15 nM | 507 nM |
| Cc1cccc(-n2nccn2)c1C(=O)N1C[C@H](Oc2nccc(C#N)c2C)CC[C@H]1C [Example 15, 3-methyl-2-{[(3R,6R)-6-methyl-1-{[2-methyl-6-(2H-1,2,3-triazol-2-yl)phenyl]carbonyl}piperidin-3-yl]oxy}pyridine-4-carbonitrile] | 0.2 nM | 12 nM | 693 nM |
| Cc1c(C#N)ccnc1O[C@@H]1CC[C@@H](C)N(C(=O)c2ccccc2C2CC2)C1 [Example 16, 2-({(3R,6R)-1-[(2-cyclopropylphenyl)carbonyl]-6-methylpiperidin-3-yl}oxy)-3-methylpyridine-4-carbonitrile] | 0.7 nM | 9 nM | 1740 nM |
| Cc1c(C#N)ccnc1O[C@@H]1CC[C@@H](C)N(C(=O)c2ccccc2C(F)(F)F)C1 [Example 17, 3-methyl-2-{[(3R,6R)-6-methyl-1-{[2-(trifluoromethyl)phenyl]carbonyl}piperidin-3-yl]oxy}pyridine-4-carbonitrile] | 3.1 nM | 21 nM | 4960 nM |
| CCOc1ccccc1C(=O)N1C[C@H](Oc2nccc(C#N)c2C)CC[C@H]1C [Example 19, 2-({(3R,6R)-1-[(2-ethoxyphenyl)carbonyl]-6-methylpiperidin-3-yl}oxy)-3-methylpyridine-4-carbonitrile] | 0.7 nM | 6 nM | 2100 nM |
| Cc1c(C#N)ccnc1O[C@@H]1CC[C@@H](C)N(C(=O)c2c(F)cccc2-c2cscn2)C1 [Example 22, 2-{[(3R,6R)-1-{[2-fluoro-6-(1,3-thiazol-4-yl)phenyl]carbonyl}-6-methylpiperidin-3-yl]oxy}-3-methylpyridine-4-carbonitrile] | 0.3 nM | 20 nM | 991 nM |
| Cc1c(C#N)ccnc1O[C@@H]1CC[C@@H](C)N(C(=O)c2ncccc2-c2cscn2)C1 [Example 24, 3-methyl-2-{[(3R,6R)-6-methyl-1-{[3-(1,3-thiazol-4-yl)pyridin-2-yl]carbonyl}piperidin-3-yl]oxy}pyridine-4-carbonitrile] | 3.8 nM | 24 nM | 4900 nM |
| Cc1c(C#N)ccnc1O[C@@H]1CC[C@@H](C)N(C(=O)c2cc(F)ncc2-c2cncs2)C1 [Example 25, 2-{[(3R,6R)-1-{[2-fluoro-5-(1,3-thiazol-5-yl)pyridin-4-yl]carbonyl}-6-methylpiperidin-3-yl]oxy}-3-methylpyridine-4-carbonitrile] | 6.1 nM | 43 nM | > 10000 nM |
| Cc1c(C#N)ccnc1O[C@@H]1CC[C@@H](C)N(C(=O)c2cc(F)ccc2-c2cscn2)C1 [Example 26, 2-{[(3R,6R)-1-{[5-fluoro-2-(1,3-thiazol-4-yl)phenyl]carbonyl}-6-methylpiperidin-3-yl]oxy}-3-methylpyridine-4-carbonitrile] | 0.6 nM | 10 nM | 967 nM |
| Cc1c(C#N)ccnc1O[C@@H]1CC[C@@H](C)N(C(=O)c2cc(F)ccc2-c2nccs2)C1 [Example 28, 2-{[(3R,6R)-1-{[5-fluoro-2-(1,3-thiazol-2-yl)phenyl]carbonyl}-6-methylpiperidin-3-yl]oxy}-3-methylpyridine-4-carbonitrile] | 0.1 nM | 5 nM | 412 nM |
| Cc1c(C#N)ccnc1O[C@@H]1CC[C@@H](C)N(C(=O)c2ccccc2N2CCCC2)C1 [Example 29, 3-methyl-2-({(3R,6R)-6-methyl-1-[(2-pyrrolidin-1-ylphenyl)carbonyl]piperidin-3-yl}oxy)pyridine-4-carbonitrile] | 3.4 nM | 29 nM | 3100 nM |
| COc1c(C#N)ccnc1O[C@@H]1CC[C@@H](C)N(C(=O)c2ccsc2-c2ncccn2)C1 [Example 108, 3-methoxy-2-({(3R,6R)-6-methyl-1-[(2-pyrimidin-2-ylthiophen-3-yl)carbonyl]piperidin-3-yl}oxy)pyridine-4-carbonitrile] |  | 14 nM | 713 nM |
| COc1ccc(C(=O)N2C[C@H](Oc3nccc(C#N)c3OC)CC[C@H]2C)c(-c2ncccn2)n1 [Example 113, 3-methoxy-2-({(3R,6R)-1-[(6-methoxy-2-pyrimidin-2-ylpyridin-3-yl)carbonyl]-6-methylpiperidin-3-yl}oxy)pyridine-4-carbonitrile] |  | 108 nM | 10000 nM |
